Consider one molecule from US20110123651A1, “DIETARY SUPPLEMENT DRINK FOR DELIVERY OF RESVERATROL AND OTHER POLYPHENOLS” (priority 2009, published 2011).

The data set in a line: Buccal delivery of resveratrol in humans: free resveratrol in plasma. Type of data set: in vivo. The conditions noted are these: human, 1 mg resveratrol in 50 mL solution retained in the mouth for one minute before swallowing, plasma two minutes later, read-out: free resveratrol measured in plasma. How it is done: One efficient way of administering resveratrol in humans may be buccal delivery, that is without immediate swallowing, by direct absorption through the inside of the mouth. As an example, when one mg of resveratrol in 50 mL solution was retained in the mouth for one minute before swallowing, 37 ng/ml of free resveratrol was measured in plasma two minutes later. This level of unchanged resveratrol in blood can only be achieved with 250 mg of resveratrol taken in pill form.

For the molecule `Oc1ccc(C=Cc2cc(O)cc(O)c2)cc1` [resveratrol], the concentration at 2 min stood at 0.037 µg/mL.
